Source: US20110124564A1, “NUCLEOLIN-BINDING PEPTIDES, NUCLEOLIN- BINDING LYTIC PEPTIDES, FUSION CONSTRUCTS AND METHODS OF MAKING AND USING SAME” (ESPERANCE PHARMACEUTICALS, INC., published 2011)
Like-named read-outs stand apart in the source and are kept apart here. Residues, ends and D or L forms follow the SMILES beside them.

Key:
[1] = system: MDA-MB-435S breast cancer cells; assay type: cell-based, human; conditions: 6 h
Description: EP-301 and EP-302 were analyzed for anti-cancer activity in vitro in a time course experiment against MDA-MB-435S breast cancer cells. EP-301 and EP-302 were freshly dissolved in saline and added into cancer cell seeded multi-well plates at increasing concentrations of 0, 0.001, 0.01, 0.1, 1, 2, 5, 10 and 100 μM. Incubations were conducted for 0.25, 0.5, 1, 2, 4, 6 h or 24 h at 37° C. Cell viability was determined using formazan conversion assays (MTT assays). Controls were treated with USP saline or 0.1% TritonX-100™ as reference for 0 and 100% cell death, respectively. Cytotoxicity was evaluated as an IC50 value derived for EP-301 and EP-302 at each time point.

[2] = system: MDA-MB-435S breast cancer cells; assay type: cell-based, human; conditions: 4 h
Description: Twelve different fusion constructs were analyzed for anti-cancer activity in vitro against MDA-MB-435S breast cancer cells and for hemolytic activity in vitro to human red blood cells. Fusion constructs of the following sequence were tested:
The peptide conjugates were freshly dissolved in saline and added into cancer cell seeded multi-well plates at increasing concentrations of 0, 0.001, 0.01, 0.1, 1, 2, 5, 10 and 100 μM. Incubations were conducted for 4 h at 37° C. Cell viability was determined using formazan conversion assays (MTT assays). Controls were treated with USP saline or 0.1% TritonX-100™ as reference for 0 and 100% cell death, respectively. Cytotoxicity was evaluated as an IC50 value.

human red blood cells = experiment: Hemolytic activity; assay type: cell-based
Description: Hemolytic activity was studied by incubating the fusion constructs with human red blood cells at concentrations of 0.01, 0.1, 1, 10 and 50 μM for 2 hours. Saline and 0.1% Triton served as controls.
Hemolytic activity of the compounds was studied by incubating EP-301 and EP-302 with human red blood cells at concentrations of 0.01, 0.1, 1, 10 and 50 μM for 2 hours.

[3] = system: HL60 (Acute Myeloid Leukemia); assay type: cell-based, human; conditions: 24 h
Description: (§1) EP-302 was freshly dissolved in saline and added into cancer cell seeded multi-well plates at increasing concentrations of 0, 0.001, 0.01, 0.1, 1, 2, 5, 10 and 100 μM. Incubations were conducted for 6 h or 24 h at 37° C. Cell viability was determined using formazan conversion assays (MTT assays). Controls were treated with USP saline or 0.1% TritonX-100™ as reference for 0 and 100% cell death, respectively. Cytotoxicity was evaluated as an IC50 value derived for EP-302 in each cell line.

MDA-MB-435S (Breast) = assay type: cell-based, human
Description: as §1

MiaPaCa (Pancreas) = assay type: cell-based, human
Description: as §1

PC-3 (Prostate) = assay type: cell-based, human
Description: as §1

A549 (Lung) = assay type: cell-based
Description: as §1

CHO (Hamster Ovary) = assay type: cell-based
Description: as §1

DU145 (Prostate) = assay type: cell-based
Description: as §1

Daudi (NHL) = assay type: cell-based
Description: as §1

HT 116(Colon) = assay type: cell-based
Description: as §1

HT 29 (Colon) = assay type: cell-based; conditions: 6 h
Description: as §1

[4] = system: K562 (Chronic Myeloid Leukemia); assay type: cell-based; conditions: 24 h
Description: as §1

LoVo (Colon) = assay type: cell-based; conditions: 6 h
Description: as §1

[5] = system: MCF-10A (normal breast cells); assay type: cell-based; conditions: 24 h
Description: as §1

MCF-7 (Breast) = assay type: cell-based
Description: as §1

MDA-MB-231 (Breast) = assay type: cell-based
Description: as §1

[6] = system: MV4-11(Acute Myeloid Leukemia); assay type: cell-based; conditions: 24 h
Description: as §1

[7] = system: NIH-3T3 (mouse fibroblast cells); assay type: cell-based; conditions: 24 h
Description: as §1

OVCAR-3 (Ovary) = assay type: cell-based; conditions: 6 h
Description: as §1

SKOV-3 (Ovary) = assay type: cell-based
Description: as §1

[8] = In vivo tolerability, repeat dose, nude mice; parameters: species or system mouse; conditions: 5 consecutive days; for Survival [%] Day 1 / Survival [%] Day 2* / Survival [%] Day 3 / Survival [%] Day 4 / Survival [%] Day 5: BalbC/nude mice
Description: Body weight, blood chemistry and blood cell counts were measured. […] Blood parameters for CBC and serum chemistry were normal in treated mice of both groups.

[9] = 5 and 10 mg/kg i.v., female nude mice

CC(C)C[C@H](NC(=O)[C@H](CCCNC(=N)N)NC(=O)[C@H](C)NC(=O)[C@H](CO)NC(=O)[C@H](CCCNC(=N)N)NC(=O)[C@H](CCCNC(=N)N)NC(=O)[C@H](CCC(N)=O)NC(=O)[C@H](CC(C)C)NC(=O)[C@H](CCCNC(=N)N)NC(=O)[C@H](C)NC(=O)[C@H](CCCNC(=N)N)NC(=O)[C@H](CCCCN)NC(=O)[C@H](C)NC(=O)[C@H](Cc1ccccc1)NC(=O)[C@H](CCCCN)NC(=O)[C@H](CCCCN)NC(=O)[C@H](C)NC(=O)[C@H](Cc1ccccc1)NC(=O)[C@H](CCCCN)NC(=O)[C@H](C)NC(=O)[C@H](Cc1ccccc1)NC(=O)[C@H](CCCCN)NC(=O)[C@H](CCCCN)NC(=O)[C@H](C)NC(=O)[C@H](Cc1ccccc1)NC(=O)[C@H](CCCCN)NC(=O)[C@H](C)NC(=O)[C@H](Cc1ccccc1)NC(=O)[C@@H](N)CCCCN)C(=O)N[C@@H](CO)C(=O)N[C@@H](C)C(=O)N[C@@H](CCCCN)C(=O)O [EP-302] (H-KFAKFAKKFAKFAKKFAKRARLQRRSARLSAK-OH)
IC50 [1]: 2.3 µM | IC50 [2]: 0.9 ± 0.05 µM | HA50 (human red blood cells): Not hemolytic | IC50 [3]: 0.5 µM | IC50 (MDA-MB-435S (Breast); 6 h): 1.4 ± 0.09 µM | IC50 (MDA-MB-435S (Breast); 24 h): 1.7 ± 0.2 µM | IC50 (MiaPaCa (Pancreas); 6 h): 2.1 ± 0.2 µM | IC50 (MiaPaCa (Pancreas); 24 h): 1.9 ± 0.1 µM | IC50 (PC-3 (Prostate); 6 h): 3.3 ± 0.3 µM | IC50 (PC-3 (Prostate); 24 h): 3.2 ± 0.8 µM | IC50 (A549 (Lung); 6 h): 4.3 ± 0.6 µM | IC50 (A549 (Lung); 24 h): 2.4 ± 0.08 µM | IC50 (CHO (Hamster Ovary); 6 h): 3.1 ± 0.9 µM | IC50 (CHO (Hamster Ovary); 24 h): 3.7 ± 0.2 µM | IC50 (DU145 (Prostate); 6 h): 3.1 ± 0.02 µM | IC50 (DU145 (Prostate); 24 h): 5.1 ± 0.1 µM | IC50 (Daudi (NHL); 6 h): 3.2 ± 0.4 µM | IC50 (Daudi (NHL); 24 h): 2.5 ± 0.05 µM | IC50 (HT 116(Colon); 6 h): 6.7 ± 0.9 µM | IC50 (HT 116(Colon); 24 h): 4.8 ± 1.1 µM | IC50 (HT 29 (Colon)): 45.8 ± 0.4 µM | IC50 [4]: 2.8 µM | IC50 (LoVo (Colon)): 14.1 ± 0.5 µM | IC50 [5]: 68 µM | IC50 (MCF-7 (Breast); 6 h): 5.5 ± 0.4 µM | IC50 (MCF-7 (Breast); 24 h): 6.4 ± 0.9 µM | IC50 (MDA-MB-231 (Breast); 6 h): 4.6 ± 0.9 µM | IC50 (MDA-MB-231 (Breast); 24 h): 3.6 ± 0.4 µM | IC50 [6]: 0.5 µM | IC50 [7]: 53 µM | IC50 (OVCAR-3 (Ovary)): 5.2 ± 0.3 µM | IC50 (SKOV-3 (Ovary); 6 h): 5.1 ± 0.2 µM | IC50 (SKOV-3 (Ovary); 24 h): 5.2 ± 0.9 µM | Survival [%] Day 1 ([8]; 5 mg/kg i.v.): 100 (5/5) % | Survival [%] Day 2* ([8]; 5 mg/kg i.v.): 100 (5/5) % | Survival [%] Day 3 ([8]; 5 mg/kg i.v.): 100 (5/5) % | Survival [%] Day 4 ([8]; 5 mg/kg i.v.): 100 (5/5) % | Survival [%] Day 5 ([8]; 5 mg/kg i.v.): 100 (5/5) % | Survival [%] Day 1 ([8]; 10 mg/kg i.v.): 100 (5/5) % | Survival [%] Day 2* ([8]; 10 mg/kg i.v.): 100 (5/5) % | Survival [%] Day 3 ([8]; 10 mg/kg i.v.): 100 (5/5) % | Survival [%] Day 4 ([8]; 10 mg/kg i.v.): 100 (5/5) % | Survival [%] Day 5 ([8]; 10 mg/kg i.v.): 100 (5/5) % | Blood parameters for CBC and serum chemistry [8, 9]: normal | Body weight [8, 9]: remained stable | Signs of toxicity / tolerability [8, 9]: no signs of toxicity
